Laboratory results published in article PMC8550792, “Evolution of kinase polypharmacology across HSP90 drug discovery” (Cell Chemical Biology, 2021).

Experiments:
Assay in all cases: biochemical
Type in all cases: biochemical
382 unique human kinases [1] = molecular target: T1, 382 unique human kinases (Homo sapiens, UniProt Q13873); conditions: BMPR2, 10 uM; for remaining activity at 10 µM: read-out: % Enzyme Activity (relative to DMSO controls)
T1 construct: purchased Reaction Biology (HotSpot contract assay)
T1 sequence (Q13873 27-1038): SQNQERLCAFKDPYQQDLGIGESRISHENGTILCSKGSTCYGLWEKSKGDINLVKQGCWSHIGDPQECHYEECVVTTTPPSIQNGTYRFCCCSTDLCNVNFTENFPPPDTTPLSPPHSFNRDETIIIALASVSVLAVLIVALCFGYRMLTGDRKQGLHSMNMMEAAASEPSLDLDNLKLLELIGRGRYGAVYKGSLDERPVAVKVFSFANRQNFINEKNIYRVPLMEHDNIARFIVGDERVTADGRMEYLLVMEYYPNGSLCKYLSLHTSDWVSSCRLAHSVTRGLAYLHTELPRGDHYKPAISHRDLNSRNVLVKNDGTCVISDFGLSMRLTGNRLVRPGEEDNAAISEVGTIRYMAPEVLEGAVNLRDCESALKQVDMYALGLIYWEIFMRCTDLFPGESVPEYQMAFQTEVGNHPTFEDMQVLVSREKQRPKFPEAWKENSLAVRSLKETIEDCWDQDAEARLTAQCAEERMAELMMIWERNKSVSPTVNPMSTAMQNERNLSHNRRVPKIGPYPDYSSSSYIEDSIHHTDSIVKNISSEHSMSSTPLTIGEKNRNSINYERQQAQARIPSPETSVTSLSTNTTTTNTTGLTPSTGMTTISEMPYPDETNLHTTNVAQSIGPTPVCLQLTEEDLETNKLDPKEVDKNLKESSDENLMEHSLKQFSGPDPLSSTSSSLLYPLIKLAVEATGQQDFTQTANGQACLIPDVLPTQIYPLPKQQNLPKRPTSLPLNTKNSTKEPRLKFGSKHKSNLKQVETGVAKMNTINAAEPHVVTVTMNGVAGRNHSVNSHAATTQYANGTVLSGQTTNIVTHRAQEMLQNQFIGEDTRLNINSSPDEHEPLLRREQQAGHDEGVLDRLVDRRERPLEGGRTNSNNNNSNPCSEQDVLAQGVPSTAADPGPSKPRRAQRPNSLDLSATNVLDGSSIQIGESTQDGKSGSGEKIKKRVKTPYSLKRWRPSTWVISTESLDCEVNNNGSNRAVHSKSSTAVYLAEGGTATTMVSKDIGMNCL

382 unique human kinases [2] = molecular target: T2, 382 unique human kinases (Homo sapiens, UniProt P30530); conditions: kinase AXL, compound 10 uM; for remaining activity at 10 µM: read-out: % Enzyme Activity (relative to DMSO controls)
T2 construct: purchased Reaction Biology (HotSpot contract assay)
T2 sequence (P30530 26-894): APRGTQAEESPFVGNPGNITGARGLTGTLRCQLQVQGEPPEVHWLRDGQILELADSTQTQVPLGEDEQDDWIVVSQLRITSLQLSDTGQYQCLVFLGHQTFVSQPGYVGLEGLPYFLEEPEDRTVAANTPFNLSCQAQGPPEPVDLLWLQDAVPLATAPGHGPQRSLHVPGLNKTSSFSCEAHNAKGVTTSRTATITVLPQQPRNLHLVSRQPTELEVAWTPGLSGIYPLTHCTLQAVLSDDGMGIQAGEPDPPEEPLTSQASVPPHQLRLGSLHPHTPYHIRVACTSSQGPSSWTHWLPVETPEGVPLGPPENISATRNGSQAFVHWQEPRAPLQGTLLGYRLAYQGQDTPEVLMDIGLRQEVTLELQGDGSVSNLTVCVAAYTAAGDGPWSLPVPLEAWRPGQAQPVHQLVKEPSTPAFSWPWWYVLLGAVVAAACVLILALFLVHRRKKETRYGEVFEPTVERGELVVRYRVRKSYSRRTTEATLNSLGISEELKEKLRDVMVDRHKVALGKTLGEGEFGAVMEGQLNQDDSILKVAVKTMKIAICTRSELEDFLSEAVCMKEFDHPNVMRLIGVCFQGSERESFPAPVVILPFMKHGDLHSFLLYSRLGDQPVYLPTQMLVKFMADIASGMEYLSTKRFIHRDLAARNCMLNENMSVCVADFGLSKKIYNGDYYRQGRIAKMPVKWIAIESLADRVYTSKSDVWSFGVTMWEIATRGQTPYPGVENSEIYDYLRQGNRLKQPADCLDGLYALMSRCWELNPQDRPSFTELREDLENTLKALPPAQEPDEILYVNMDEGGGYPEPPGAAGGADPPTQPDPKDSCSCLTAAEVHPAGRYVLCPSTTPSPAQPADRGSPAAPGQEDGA

382 unique human kinases [3] = molecular target: T3, 382 unique human kinases (Homo sapiens, UniProt Q9NRH2); conditions: SNRK, 10 uM; for remaining activity at 10 µM: read-out: % Enzyme Activity (relative to DMSO controls)
T3 construct: purchased Reaction Biology (HotSpot contract assay)
T3 sequence (Q9NRH2 1-765): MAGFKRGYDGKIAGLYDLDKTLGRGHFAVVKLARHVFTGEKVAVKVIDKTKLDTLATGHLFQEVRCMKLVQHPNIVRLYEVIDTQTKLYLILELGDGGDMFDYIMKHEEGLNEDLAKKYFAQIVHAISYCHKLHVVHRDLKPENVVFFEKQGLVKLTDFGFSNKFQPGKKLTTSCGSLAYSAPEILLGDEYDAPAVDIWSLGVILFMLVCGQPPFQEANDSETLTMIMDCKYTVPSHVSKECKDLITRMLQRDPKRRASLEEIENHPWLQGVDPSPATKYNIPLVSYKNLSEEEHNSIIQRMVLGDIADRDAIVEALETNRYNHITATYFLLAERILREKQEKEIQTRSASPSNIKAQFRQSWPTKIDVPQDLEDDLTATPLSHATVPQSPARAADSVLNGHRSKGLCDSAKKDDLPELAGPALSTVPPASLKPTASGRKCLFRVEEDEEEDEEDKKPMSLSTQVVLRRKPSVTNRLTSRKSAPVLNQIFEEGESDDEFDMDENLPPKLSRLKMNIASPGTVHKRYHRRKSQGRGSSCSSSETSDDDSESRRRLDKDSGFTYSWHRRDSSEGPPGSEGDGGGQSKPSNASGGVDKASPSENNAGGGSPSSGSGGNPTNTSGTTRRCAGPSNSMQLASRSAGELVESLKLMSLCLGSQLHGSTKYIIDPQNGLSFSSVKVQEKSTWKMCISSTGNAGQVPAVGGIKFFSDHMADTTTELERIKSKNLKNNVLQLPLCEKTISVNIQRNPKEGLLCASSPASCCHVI

382 unique human kinases [4] = molecular target: T4, 382 unique human kinases (Homo sapiens, UniProt P37173); conditions: kinase TGFBR2, compound 10 uM; for remaining activity at 10 µM: read-out: % Enzyme Activity (relative to DMSO controls)
T4 construct: purchased Reaction Biology (HotSpot contract assay)

382 unique human kinases [5] = molecular target: T5, 382 unique human kinases (Homo sapiens, UniProt Q16288); conditions: TRKC, [ATP] 100 µM
T5 construct: purchased Reaction Biology (HotSpot contract assay)

382 unique human kinases [6] = molecular target: T6, 382 unique human kinases (Homo sapiens, UniProt Q96RG2); conditions: PASK, [ATP] 50 µM
T6 construct: purchased Reaction Biology (HotSpot contract assay)

[7] = compound 1 uM, read-out: % Enzyme Activity (relative to DMSO controls)
[8] = compound 10 uM, read-out: % Enzyme Activity (relative to DMSO controls)

T4 sequence (P37173 23-567): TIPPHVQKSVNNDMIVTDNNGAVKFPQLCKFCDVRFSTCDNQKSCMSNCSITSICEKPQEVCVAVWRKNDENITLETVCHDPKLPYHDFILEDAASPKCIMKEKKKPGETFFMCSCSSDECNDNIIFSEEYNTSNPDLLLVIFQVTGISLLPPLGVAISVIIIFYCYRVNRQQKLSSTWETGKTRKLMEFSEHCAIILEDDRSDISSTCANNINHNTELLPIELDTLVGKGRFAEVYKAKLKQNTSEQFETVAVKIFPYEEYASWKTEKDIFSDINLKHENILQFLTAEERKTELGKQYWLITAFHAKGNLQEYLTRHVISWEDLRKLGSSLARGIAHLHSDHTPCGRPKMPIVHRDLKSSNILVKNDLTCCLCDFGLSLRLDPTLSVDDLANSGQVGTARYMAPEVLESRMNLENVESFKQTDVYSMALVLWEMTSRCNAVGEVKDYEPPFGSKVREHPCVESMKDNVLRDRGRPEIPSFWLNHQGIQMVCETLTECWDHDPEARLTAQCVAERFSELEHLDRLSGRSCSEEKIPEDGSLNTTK
T5 sequence (Q16288 32-839): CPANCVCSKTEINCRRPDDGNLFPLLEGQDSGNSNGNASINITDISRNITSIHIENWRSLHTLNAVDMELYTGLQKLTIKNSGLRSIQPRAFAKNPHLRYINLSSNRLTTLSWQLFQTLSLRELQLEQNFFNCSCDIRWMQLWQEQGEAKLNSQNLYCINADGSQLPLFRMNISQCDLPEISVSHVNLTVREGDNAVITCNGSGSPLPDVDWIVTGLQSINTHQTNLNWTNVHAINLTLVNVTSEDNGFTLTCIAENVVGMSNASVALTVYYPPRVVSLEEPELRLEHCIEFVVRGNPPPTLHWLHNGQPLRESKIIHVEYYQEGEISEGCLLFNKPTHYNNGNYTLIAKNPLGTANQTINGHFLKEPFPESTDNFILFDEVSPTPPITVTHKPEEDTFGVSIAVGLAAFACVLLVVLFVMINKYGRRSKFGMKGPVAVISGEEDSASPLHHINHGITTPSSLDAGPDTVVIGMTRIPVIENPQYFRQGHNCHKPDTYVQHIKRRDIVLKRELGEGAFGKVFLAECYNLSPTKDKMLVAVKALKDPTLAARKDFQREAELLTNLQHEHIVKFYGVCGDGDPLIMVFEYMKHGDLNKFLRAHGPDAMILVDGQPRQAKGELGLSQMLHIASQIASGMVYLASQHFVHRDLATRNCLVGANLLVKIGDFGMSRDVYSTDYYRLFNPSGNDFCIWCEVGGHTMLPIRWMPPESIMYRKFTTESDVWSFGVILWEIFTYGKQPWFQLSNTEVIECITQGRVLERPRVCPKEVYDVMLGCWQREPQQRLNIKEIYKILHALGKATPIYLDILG
T6 sequence (Q96RG2 whole entry): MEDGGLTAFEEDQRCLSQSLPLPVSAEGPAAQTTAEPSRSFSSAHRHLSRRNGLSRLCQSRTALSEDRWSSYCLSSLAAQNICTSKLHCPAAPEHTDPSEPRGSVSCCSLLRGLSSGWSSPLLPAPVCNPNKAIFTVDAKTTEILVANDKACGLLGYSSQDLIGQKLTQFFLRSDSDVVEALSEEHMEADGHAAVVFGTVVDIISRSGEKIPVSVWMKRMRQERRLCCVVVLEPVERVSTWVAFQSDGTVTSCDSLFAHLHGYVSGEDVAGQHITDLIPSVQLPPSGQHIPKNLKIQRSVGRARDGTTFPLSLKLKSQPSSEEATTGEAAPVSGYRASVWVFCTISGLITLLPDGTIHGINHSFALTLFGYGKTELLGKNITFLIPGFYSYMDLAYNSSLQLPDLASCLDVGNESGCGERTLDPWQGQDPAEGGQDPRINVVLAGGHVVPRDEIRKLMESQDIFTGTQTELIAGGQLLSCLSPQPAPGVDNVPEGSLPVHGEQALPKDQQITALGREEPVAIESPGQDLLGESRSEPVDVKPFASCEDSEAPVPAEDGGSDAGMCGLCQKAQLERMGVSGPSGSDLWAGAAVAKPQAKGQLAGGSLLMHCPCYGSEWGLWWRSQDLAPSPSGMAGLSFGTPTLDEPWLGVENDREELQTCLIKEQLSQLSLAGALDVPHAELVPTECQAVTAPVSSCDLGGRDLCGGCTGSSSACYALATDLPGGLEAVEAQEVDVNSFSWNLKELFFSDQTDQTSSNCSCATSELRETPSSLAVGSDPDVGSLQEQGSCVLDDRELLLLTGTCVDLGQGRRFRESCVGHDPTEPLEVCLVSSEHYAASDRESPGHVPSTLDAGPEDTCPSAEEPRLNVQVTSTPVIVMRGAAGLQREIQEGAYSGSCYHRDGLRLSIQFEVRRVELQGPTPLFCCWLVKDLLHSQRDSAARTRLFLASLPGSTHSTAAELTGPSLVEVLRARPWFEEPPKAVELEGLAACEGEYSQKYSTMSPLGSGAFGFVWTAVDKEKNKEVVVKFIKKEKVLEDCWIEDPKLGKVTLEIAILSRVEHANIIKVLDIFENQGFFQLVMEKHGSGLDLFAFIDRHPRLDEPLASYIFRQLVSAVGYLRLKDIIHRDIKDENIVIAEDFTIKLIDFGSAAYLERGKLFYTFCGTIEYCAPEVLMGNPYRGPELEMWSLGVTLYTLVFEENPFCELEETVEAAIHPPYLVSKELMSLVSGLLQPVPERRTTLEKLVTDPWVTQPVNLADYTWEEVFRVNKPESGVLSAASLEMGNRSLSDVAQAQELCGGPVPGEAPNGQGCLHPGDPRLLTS

SMILES	remaining activity at 10 µM (382 unique human kinases [1]) [%]	remaining activity at 10 µM (382 unique human kinases [2]) [%]	remaining activity at 10 µM (382 unique human kinases [3]) [%]	remaining activity at 10 µM (382 unique human kinases [4]) [%]	remaining activity at 1 µM (382 unique human kinases [5]; [7]) [%]	remaining activity at 10 µM (382 unique human kinases [5]; [8]) [%]	remaining activity at 1 µM (382 unique human kinases [6]; [7]) [%]	remaining activity at 10 µM (382 unique human kinases [6]; [8]) [%]	% Enzyme Activity (relative to DMSO controls) (382 unique human kinases [1]) [%]	% Enzyme Activity (relative to DMSO controls) (382 unique human kinases [2]) [%]	% Enzyme Activity (relative to DMSO controls) (382 unique human kinases [3]) [%]	% Enzyme Activity (relative to DMSO controls) (382 unique human kinases [4]) [%]	% Enzyme Activity (relative to DMSO controls) (382 unique human kinases [5]; compound 10 uM) [%]	% Enzyme Activity (relative to DMSO controls) (382 unique human kinases [6]; compound 10 uM) [%]
CC(C)c1cc(-c2n[nH]c(=O)n2-c2ccc3c(ccn3C)c2)c(O)cc1O [Ganetespib (STA9090)]	65.3	84	76.8	92.9	–	–	–	–	–	–	–	–	–	–
CC(C)c1cc(-c2n[nH]c(=O)n2-c2ccc3c(ccn3C)c2)c(O)cc1O [Ganetespib]	–	–	–	–	30.6	7.62	49.7	12.1	–	–	–	–	–	–
CCNC(=O)c1noc(-c2cc(C(C)C)c(O)cc2O)c1-c1ccc(CN2CCOCC2)cc1 [Luminespib (AUY-922)]	108	98.9	80.5	129	–	–	–	–	104.76	97.82	79.00	124.56	–	–
CCNC(=O)c1noc(-c2cc(C(C)C)c(O)cc2O)c1-c1ccc(CN2CCOCC2)cc1 [Luminespib]	–	–	–	–	–	96.8	–	99	–	–	–	–	94.48	98.65
